What was measured:
Format in all cases: cell-based
TNF-α production = TNF-α production inhibiting test using human PBMC (LPS stimulus, ELISA); conditions: LPS 10 ng/ml, 16 hours, ELISA of culture supernatants
Method: Example 145: TNF-α production inhibiting test using human PBMC (peripheral blood mononuclear cells)
Preparation of human PBMC
The blood of a healthy person was taken with a vacuum blood-collecting tube (Nipro neotube) and diluted up to two-fold with physiological saline (Otsuka Pharmaceuticals). To the diluted blood was added 6% dextran T-500 (prepared after dissolution in physiological saline (Otsuka Pharmaceuticals) and sterilization with an autoclave) so as to make a final concentration of 1%. The solution was subjected to tumble mixing and allowed to stand at room temperature for 30 minutes to precipitate the erythrocytes. The supernatant was collected and subjected to centrifugation at 20 °C and at 1,500 rpm for 10 minutes. The cells were suspended in 3 ml of RPMI1640 culture medium (Asahi Technogllas) and overlaid on the solution surface of 3 ml Lymphoprep (NYCOMED). Further, with 1.5 ml of RPMI1640 culture medium being added to the tube which had contained the cell suspension liquid, the cells attached to the tube, which had remained uncollected, were suspended for collection and overlaid on the Lymphoprep previously mentioned. This operation was repeated again. After centrifugation at 20 °C and at 2,000 rpm for 30 minutes, there was collected a fraction of peripheral blood mononuclear cells present in the boundary surface between the Lymphoprep and the RPMI1640 culture medium. The cells were washed twice with 10 ml RPMI1640 culture medium to remove the Lymphoprep and then suspended in a RPMI1640 culture medium added with 10% bovine fetal serum (IRVINE SCIENTIFIC), 100 U/ml penicillin and 100 µg/ml streptomycin (hereinafter referred to as cRPMI1640 culture medium). The number of the cells was measured by Tuerk dying, and the cells, after adjustment to 3 × 10^6 cells/ml, were planted in 100 µl/well on a 96-well plate (FALCON). The cells were cultured at 37 °C under 5%CO2 atmosphere for about 5 hours.
Induction of TNF-α production by LPS stimulus
LPS (E.coli 0111:B4, DIFCO), which had been prepared to 10 mg/ml with water and kept at -20, was diluted to 100 µg/ml with cRPMI1640 culture medium and subjected to sterile filtration. The 100 µg/ml LPS was diluted with cRPMI1640 culture medium to prepare 20 ng/ml LPS. A compound to be tested which was dissolved in DMSO at 1,000-fold concentration was diluted to 500-fold with cRPMI1640 culture medium containing 20 ng/ml LPS and added in 100 µl/well to the cells which had been planted on the previously mentioned 96-well plate (final concentration of LPS: 10 ng/ml). For use as the control group, the solutions were made by diluting DMSO of the same volume as in the test compounds with cRPMI1640 culture medium containing 20 ng/ml LPS, and they were added to the cells. These cells were cultured at 37 °C under 5%CO2 atmosphere for 16 hours.
Determination of TNF-α activity (ELISA method)
To the 96-well plate the mouse anti-human TNF-α antibody (prepared to 2 µg/ml with Coating buffer*^1) was added so as to make 100 µl/well and allowed to stand at 4 °C overnight. After 5-times washing with Wash buffer*^2 (300µl/well), the Blocking buffer*^3 was added to the solutions, which were allowed to stand 37 °C for 2 hours. The culture supernatants were diluted up to 5-fold in the plate (supernatant 20 µl being added to 80 µl of cRPMI1640 culture medium). Simultaneously, for using for a calibration curve, a series of dilution of recombinant human TNF-α was prepared arid allowed to stand 37 °C for 1 hour. After 5-times washing with Wash buffer (300 µl /well), biotinylated rabbit anti-human TNF-α antibody (prepared to 0.25 µg/ml with Antibody diluent*^4) was added so as to make 100 µl /well and allowed to stand at 37 °C for 1 hour. After 5-times washing with Wash buffer (300 µl /well), Streptavidin-Horseradish peroxidase(prepared to 1:4000 with Antibody diluent) was added to make 100 µl /well and allowed to stand at 37 °C for 15 minutes. […]

IL-4 production = IL-4 production inhibiting test in OVA-stimulated spleen cells of immunised mouse (ELISA); conditions: 72 h, spleen cells of OVA-immunised BALB/c-mouse, OVA 0.5 mg/ml, 3 days
Method: (§1) Example 146: IL-4 and IL-5 production inhibiting test
(§2) A 6-weeks-old BALB/c-mouse (Nippon Charles River) was bred preparatively for 1 week and given at the day 0 and day 14 intraperitoneal injection of 100 µl PBS to give immunity which PBS contained 0.1 mg/ml of Ovalbumin(OVA) and 40 mg/ml of aluminum hydroxide. At the day 21 the spleen was taken out from the mouse. The spleen was dissected with a pincette in cooled PBS, passed through a mesh and subjected to centrifugation at 4 °C at 1,500 rpm for 5 minutes. The cells was added with 5 ml of 0.2% NaCI to destroy erythrocytes, and then was made isotonic by adding 5 ml of 1.6% of NaCl. After centrifugation at 4 °C, 1,500 rpm for 5 minutes, the cells were washed twice with 10 ml ofRPMI1640 culture medium. The obtained spleen cells were suspended in cRPMI1640 medium, and the number of the cells was measured by Tuerk dying. After being adjusted to 1 × 10^7 cells/ml, the cells were planted in 100 µl/well on a 96-well plate (FALCON). The cells were cultured at 37 °C under 5% CO2 atmosphere for about 4 hours. OVA was prepared to 10 mg/ml with cRPMI1640 culture medium and subjected to sterile filtration. The 10 mg/ml OVA was diluted with cRPMI1640 culture medium to give 1 mg/ml OVA. A compound to be tested which was dissolved in DMSO in at 1,000-fold concentration was diluted up to 500-fold with cRPMI1640 culture medium containing 1 mg/ml OVA and added in 100 µl/well to the cells which had been planted on the previously mentioned 96-well plate (final concentration of OVA: 0.5 mg/ml). As the controls, the solutions were made by diluting DMSO of the same volume as with the test compounds with cRPMI1640 culture medium containing 1 mg/ml OVA, and they were added to the cells. These cells were cultured at 37 °C under 5%CO2 atmosphere for 3 days. IL-4 and IL-5 in the culture supernatants after 3 days were quantitatively determined by ELISA method. IL-4 and IL-5 were quantitatively determined using IL-4 Development Kit (Genzyme Techne) and mouse IL-5 MiniKit (ENDOGEN), respectively. The production inhibiting rates of each tested compound against IL-4 are shown in Table 22, those against IL-5 in Table 23.

IL-5 production = IL-5 production inhibiting test in OVA-stimulated spleen cells of immunised mouse (ELISA); conditions: 72 h, spleen cells of OVA-immunised BALB/c-mouse, OVA 0.5 mg/ml, 3 days
Method: as §1, §2

| IC50 (TNF-α production) | IC50 (IL-4 production) | IC50 (IL-5 production) | Compound |
| --- | --- | --- | --- |
| 300 nM | 100 nM | 1400 nM | O=[N+]([O-])c1cc2c(NCc3cccc(F)c3)ncnc2cc1N1CCNCC1 [Example 62, 4-(3-fluorobenzylamino)-6-nitro-7-(piperazin-1-yl)quinazoline] |
| 200 nM | 100 nM | 1700 nM | CCOC(=O)c1ccc(CNc2ncnc3cc(N4CCNCC4)c([N+](=O)[O-])cc23)cc1 [Example 129, 4-[(4-ethoxycarbonyl)benzylamino]-6-nitro-7-(piperazin-1-yl)quinazoline] |
| 300 nM | 200 nM | 1400 nM | CC(C)(C)c1cc(CNc2ncnc3cc(N4CCNCC4)c([N+](=O)[O-])cc23)cc(C(C)(C)C)c1O [Example 131, 4-[(3,5-di-tert-butyl-4-hydroxy)benzylamino]-6-nitro-7-(piperazin-1-yl)quinazoline] |

From patent EP1229025A1, “NOVEL QUINAZOLINE DERIVATIVES” (Japan Energy Corporation, priority 1999, dated 2001)
